Experimental findings from patent publication US11000033B2, “Ketone or oxime compound, and herbicide” (NISSAN CHEMICAL CORPORATION, priority 2014, dated 2021) are described below.

Holding throughout (assay type): in vivo
In one data set the test system is beet. Kind of data set: Test Example 5: effect on crop by foliage application, plastic box (symbol f). Particulars: 320 g/ha, 3 weeks after application. The procedure, abridged: (§1)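 Greenhouse test at 25° C. to 30° C. Seeds of crops and weeds were spot-sown in boxes of sterilized diluvial soil under roughly 1.5 cm soil cover, then grown for foliage treatment.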
Another data set deals with rice plant. Kind of data set: Test Example 5: effect on crop by foliage application, plastic box (symbol b). Conditions: 320 g/ha, 3 weeks after application. The essentials: as §1
The next data set deals with corn. Kind of data set: Test Example 5: effect on crop by foliage application, plastic box (symbol c). Conditions: 320 g/ha, 3 weeks after application. The essentials:
as §1

In data set [1] the test system is Echinochloa oryzacola Vasing. Kind of data set: Test Example 2: herbicidal activity, application during weed generation in submerged conditions (symbol A). Particulars: Table 23; application herbicide amount 320 g/ha; grade 0-5 by criteria of Test Example 1. The essentials: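 Scoring of herbicidal effect took place 3 weeks after treatment, using the criteria of the earlier test. Treatment was water-surface application of diluted emulsifiable compound at a set dose. Plants were at one- to two-leaf stage in submerged alluvial soil (4 cm depth), greenhouse 25-30° C.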

Data set [2] has as its system Setaria viridis. Kind of data set: Test Example 5: herbicidal effect by foliage application, plastic box (symbol G). Particulars: 320 g/ha, 3 weeks after application. The procedure, abridged:
(§2)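 Greenhouse foliar test: seedlings at 14 days, grown 25° C. to 30° C. in sterilized diluvial soil; compound applied as an aqueous dilution of an emulsion; response read 3 weeks after spraying.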

A further data set concerns Chenopodium album. Kind of data set: Test Example 5: herbicidal effect by foliage application, plastic box (symbol O). Particulars: 320 g/ha, 3 weeks after application. The procedure, abridged:
as §2

In the next data set the test system is Alopecurus myosuroides. Kind of data set: Test Example 5: herbicidal effect by foliage application, plastic box (symbol J). Particulars: 320 g/ha, 3 weeks after application. The procedure, abridged: as §2
Another data set concerns Leptochloa chinensis. Kind of data set: Test Example 3: herbicidal effect by foliage application, Wagner pot (symbol D). Particulars: application herbicide amount 320 g/ha. The essentials:
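Foliar spray of a water-diluted emulsion at a predetermined herbicide amount, applied to 14-day-old plants. Seedlings were raised in flooded alluvial soil (0.1–0.5 cm water) at 25–30 °C in a greenhouse. Injury was rated after 3 weeks against fixed criteria.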

In data set [3] the test system is wheat. Kind of data set: Test Example 5: effect on crop by foliage application, plastic box (symbol e). Particulars: 320 g/ha, 3 weeks after application. The procedure, abridged: as §1
The subject of the next data set is Amaranthus retroflexus. Kind of data set: Test Example 4: herbicidal effect by soil treatment (symbol N). The essentials: (§3)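 Seeds were sown in sterilized diluvial soil, covered with about 1.5 cm of soil, and the soil surface was sprayed with a water-diluted emulsion of the compound at a predetermined rate. Plants grew in a greenhouse at 25° C. to 30° C.; effects were scored visually 3 weeks after application.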

Data set [4] concerns Setaria viridis. Kind of data set: Test Example 4: herbicidal effect by soil treatment (symbol G). The essentials: as §3
Data set [5] concerns wheat. Kind of data set: Test Example 4: effect on crop by soil treatment (symbol e). Conditions: for e: wheat, effect on crop grade: application herbicide amount 320 g/ha. The essentials:
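Plants grew in a 25° C. to 30° C. greenhouse after spot-sowing of seeds, including beet, rapeseed, wheat and rice, into sterilized diluvial soil under roughly 1.5 cm of cover soil.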

The mark [6] stands for this setting: application herbicide amount 320 g/ha.

On to `CON=C(C)CC1CC(O)=C(c2c(C)cc(-c3ccccc3)cc2C)C1=O` (stereo not drawn) [6-015], for which the “f: beet, effect on crop grade” value with beet was 0 (Herbicidal ratio of 5% or lower (almost no effect)). Besides, in the data set on rice plant, the “b: directly sowed rice plant, effect on crop grade” value (“b: directly sowed rice plant” for short) is reported as 5 (Herbicidal ratio of 90% or more (almost completely withered)). Also, the “c: corn, effect on crop grade” value in the data set on corn is given as 5 (Herbicidal ratio of 90% or more (almost completely withered)). In addition, in data set [1], the “Herbicidal effect grade, A: Echinochloa oryzacola Vasing.” value is 5 (Herbicidal ratio of 90% or more (almost completely withered)). In addition, the “G: Setaria viridis, herbicidal effect grade” value (“G: Setaria viridis” below) in the data set with Setaria viridis [2] and with Setaria viridis [4] (setting [6]) was 5 (Herbicidal ratio of 90% or more (almost completely withered)) throughout. Also, the “O: Chenopodium album, herbicidal effect grade” value (from here on “O: Chenopodium album”) in the data set on Chenopodium album was 4 (Herbicidal ratio of 70% or higher and lower than 90%). Besides, the “J: Alopecurus myosuroides, herbicidal effect grade” value (“J: Alopecurus myosuroides” for short) in the data set on Alopecurus myosuroides was 5 (Herbicidal ratio of 90% or more (almost completely withered)). Besides, the “herbicidal effect on D (Leptochloa chinensis), grade 0-5” value (from here on “herbicidal effect on D”) in the data set with Leptochloa chinensis is listed as 5 (Herbicidal ratio of 90% or more (almost completely withered)). Further, the “e: wheat, effect on crop grade” value with wheat [3] and with wheat [5] was 0 (Herbicidal ratio of 5% or lower (almost no effect)) in each case. Further, in the data set with Amaranthus retroflexus (setting [6]), the “N: Amaranthus retroflexus, herbicidal effect grade” value (from here on “N: Amaranthus retroflexus”) was 5 (Herbicidal ratio of 90% or more (almost completely withered)).

Turning to `CCC(=O)CCC1CC(OC)=C(c2c(C)cc(C)cc2C)C1=O` (stereo not drawn) [5-002], the “f: beet, effect on crop grade” value with beet is listed as 0 (Herbicidal ratio of 5% or lower (almost no effect)). Moreover, the “b: directly sowed rice plant” value in the data set on rice plant is reported as 0 (Herbicidal ratio of 5% or lower (almost no effect)). Further, the “c: corn, effect on crop grade” value with corn is recorded as 0 (Herbicidal ratio of 5% or lower (almost no effect)). Also, in [1], the “Herbicidal effect grade, A: Echinochloa oryzacola Vasing.” value is on record as 0 (Herbicidal ratio of 5% or lower (almost no effect)). Further, the “G: Setaria viridis” value with Setaria viridis [2] and in the data set with Setaria viridis [4] (setting [6]) was 0 (Herbicidal ratio of 5% or lower (almost no effect)) each time. Also, in the data set with Chenopodium album, the “O: Chenopodium album” value is listed as 0 (Herbicidal ratio of 5% or lower (almost no effect)). Also, the “J: Alopecurus myosuroides” value in the data set with Alopecurus myosuroides is recorded as 0 (Herbicidal ratio of 5% or lower (almost no effect)). Moreover, the “herbicidal effect on D” value with Leptochloa chinensis is 0 (Herbicidal ratio of 5% or lower (almost no effect)). For the same molecule, the “e: wheat, effect on crop grade” value in the data set on wheat [3] and in the data set on wheat [5] was 0 (Herbicidal ratio of 5% or lower (almost no effect)) each time. In addition, in the data set on Amaranthus retroflexus (setting [6]), the “N: Amaranthus retroflexus” value is recorded as 0 (Herbicidal ratio of 5% or lower (almost no effect)).

For the molecule `CC(=O)C(C(C)=O)C1CC(O)=C(c2c(C)cc(C)cc2C)C1=O` (stereo not drawn) [2-002], the “f: beet, effect on crop grade” value in the data set on beet is on record as 0 (Herbicidal ratio of 5% or lower (almost no effect)). For the same molecule, the “b: directly sowed rice plant” value in the data set with rice plant was 4 (Herbicidal ratio of 70% or higher and lower than 90%). In the data set on corn, the “c: corn, effect on crop grade” value is recorded as 0 (Herbicidal ratio of 5% or lower (almost no effect)). Besides, the “Herbicidal effect grade, A: Echinochloa oryzacola Vasing.” value in data set [1] is 0 (Herbicidal ratio of 5% or lower (almost no effect)). For the same molecule, the “G: Setaria viridis” value with Setaria viridis [2] is 4 (Herbicidal ratio of 70% or higher and lower than 90%); with Setaria viridis [4] (320 g/ha), 0 (Herbicidal ratio of 5% or lower (almost no effect)). Besides, in the data set on Chenopodium album, the “O: Chenopodium album” value was 3 (Herbicidal ratio of 40% or higher and lower than 70%). The “J: Alopecurus myosuroides” value with Alopecurus myosuroides was 4 (Herbicidal ratio of 70% or higher and lower than 90%). Also, in the data set on Leptochloa chinensis, the “herbicidal effect on D” value was 0 (Herbicidal ratio of 5% or lower (almost no effect)). Further, the “e: wheat, effect on crop grade” value with wheat [3] was 0 (Herbicidal ratio of 5% or lower (almost no effect)). In addition, the “N: Amaranthus retroflexus” value in the data set on Amaranthus retroflexus (320 g/ha) is on record as 0 (Herbicidal ratio of 5% or lower (almost no effect)). In the data set on wheat [5] (320 g/ha), the “e: wheat, effect grade on crop” value is given as 0 (Herbicidal ratio of 5% or lower (almost no effect)).

As for `CON=C(C)CC1CC(O)=C(c2c(C)cc(-c3ccc(Cl)nc3)cc2C)C1=O` (mixture of isomers) [6-035], in the data set on beet, the “f: beet, effect on crop grade” value was 0 (Herbicidal ratio of 5% or lower (almost no effect)). Further, the “b: directly sowed rice plant” value with rice plant was 5 (Herbicidal ratio of 90% or more (almost completely withered)). Moreover, in the data set on corn, the “c: corn, effect on crop grade” value is 5 (Herbicidal ratio of 90% or more (almost completely withered)). In [1], the “Herbicidal effect grade, A: Echinochloa oryzacola Vasing.” value is on record as 5 (Herbicidal ratio of 90% or more (almost completely withered)). Also, the “G: Setaria viridis” value with Setaria viridis [2] and in the data set with Setaria viridis [4] (setting [6]) was 5 (Herbicidal ratio of 90% or more (almost completely withered)) throughout. Besides, the “O: Chenopodium album” value in the data set with Chenopodium album was 3 (Herbicidal ratio of 40% or higher and lower than 70%). Also, in the data set on Alopecurus myosuroides, the “J: Alopecurus myosuroides” value is recorded as 5 (Herbicidal ratio of 90% or more (almost completely withered)). The “herbicidal effect on D” value with Leptochloa chinensis is recorded as 5 (Herbicidal ratio of 90% or more (almost completely withered)). Also, the “e: wheat, effect on crop grade” value with wheat [3] was 4 (Herbicidal ratio of 70% or higher and lower than 90%); with wheat [5] it was 0 (Herbicidal ratio of 5% or lower (almost no effect)). For the same molecule, the “N: Amaranthus retroflexus” value in the data set on Amaranthus retroflexus (setting [6]) was 0 (Herbicidal ratio of 5% or lower (almost no effect)).

With `CCOC(=O)C(C(=O)c1ccccc1)C1CC(O)=C(c2c(C)cc(C)cc2C)C1=O` (stereo not drawn) [2-008], the “f: beet, effect on crop grade” value in the data set with beet is given as 0 (Herbicidal ratio of 5% or lower (almost no effect)). In the data set with rice plant, the “b: directly sowed rice plant” value is 4 (Herbicidal ratio of 70% or higher and lower than 90%). In addition, the “c: corn, effect on crop grade” value with corn is 1 (Herbicidal ratio of 5% or higher and lower than 20%). Besides, the “Herbicidal effect grade, A: Echinochloa oryzacola Vasing.” value in data set [1] was 0 (Herbicidal ratio of 5% or lower (almost no effect)). In addition, the “G: Setaria viridis” value with Setaria viridis [2] is 3 (Herbicidal ratio of 40% or higher and lower than 70%); in the data set on Setaria viridis [4] (setting [6]) it was 0 (Herbicidal ratio of 5% or lower (almost no effect)). Further, the “O: Chenopodium album” value in the data set on Chenopodium album is 0 (Herbicidal ratio of 5% or lower (almost no effect)). Further, the “J: Alopecurus myosuroides” value in the data set on Alopecurus myosuroides was 3 (Herbicidal ratio of 40% or higher and lower than 70%). Also, the “herbicidal effect on D” value in the data set on Leptochloa chinensis is 0 (Herbicidal ratio of 5% or lower (almost no effect)). The “e: wheat, effect on crop grade” value with wheat [3] and with wheat [5] was 0 (Herbicidal ratio of 5% or lower (almost no effect)) in each case. In addition, in the data set on Amaranthus retroflexus (setting [6]), the “N: Amaranthus retroflexus” value is given as 0 (Herbicidal ratio of 5% or lower (almost no effect)).

Take `CCOC(=O)C(C(=O)C(C)C)C1CC(O)=C(c2c(C)cc(C)cc2C)C1=O` (stereo not drawn) [2-009]: the “f: beet, effect on crop grade” value in the data set with beet is 0 (Herbicidal ratio of 5% or lower (almost no effect)). Further, the “b: directly sowed rice plant” value in the data set with rice plant was 4 (Herbicidal ratio of 70% or higher and lower than 90%). Besides, in the data set with corn, the “c: corn, effect on crop grade” value is 0 (Herbicidal ratio of 5% or lower (almost no effect)). The “Herbicidal effect grade, A: Echinochloa oryzacola Vasing.” value in [1] is recorded as 0 (Herbicidal ratio of 5% or lower (almost no effect)). The “G: Setaria viridis” value in the data set on Setaria viridis [2] and with Setaria viridis [4] (setting [6]) was 0 (Herbicidal ratio of 5% or lower (almost no effect)) throughout. Moreover, in the data set with Chenopodium album, the “O: Chenopodium album” value is given as 0 (Herbicidal ratio of 5% or lower (almost no effect)). For the same molecule, in the data set with Alopecurus myosuroides, the “J: Alopecurus myosuroides” value was 1 (Herbicidal ratio of 5% or higher and lower than 20%). Moreover, the “herbicidal effect on D” value in the data set with Leptochloa chinensis was 0 (Herbicidal ratio of 5% or lower (almost no effect)). In addition, the “e: wheat, effect on crop grade” value in the data set on wheat [3] and with wheat [5] was 0 (Herbicidal ratio of 5% or lower (almost no effect)) throughout. Also, the “N: Amaranthus retroflexus” value in the data set on Amaranthus retroflexus (setting [6]) is reported as 0 (Herbicidal ratio of 5% or lower (almost no effect)).
